Experimental data as given in patent US7176008B2, “Process for producing activated thrombin-activatable fibrinolysis inhibitor” (Merck & Co., Inc., priority 2002, dated 2007).
Residues, ends and D or L forms follow the SMILES beside them. *: point of attachment. Biotin = O=C1N[C@H]2[C@H](CS[C@H]2CCCCC(=O)*)N1; Ahx = NCCCCCC(=O)O

Key:
[1] = target: T1, CPB (Homo sapiens, UniProt P15086); conditions: CPB versus TAFIa
T1 sequence (P15086 111-417): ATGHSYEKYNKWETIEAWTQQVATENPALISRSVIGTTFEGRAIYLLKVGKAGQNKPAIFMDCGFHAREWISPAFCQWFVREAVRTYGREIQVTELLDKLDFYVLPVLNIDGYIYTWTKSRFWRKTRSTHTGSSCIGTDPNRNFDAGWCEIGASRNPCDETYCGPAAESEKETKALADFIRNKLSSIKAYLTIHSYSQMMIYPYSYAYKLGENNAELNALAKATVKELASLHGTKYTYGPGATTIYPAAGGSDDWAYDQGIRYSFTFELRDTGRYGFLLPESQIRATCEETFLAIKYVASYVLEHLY
Experimental: (§1) A typical assay (75 μL) contained each studied carboxypeptidase and selected inhibitors (in 5 μL DMSO) in HBSP buffer in 96-well round bottom microtiter plates (Costar 3365 plates). Enzyme and compound were preincubated for 15–30 minutes at room temperature. […] The final substrate concentration was 15 to 50 nM. The amount of carboxypeptidase activity was titrated to result in 40,000–50,000 electrochemiluminescence counts (typically 0.02–0.1 nM, 0.01 nM, 5 nM, and 0.15–0.65 nM. for TAFIa, CPB, CPN and CPM, respectively). […] Ruthenium-labeled G2-10 (25 μL of 0.063 μg/mL) and streptavidin magnetic beads (25 μL of 0.2 mg/mL, Dynabeads M-280) were added to the quenched solution and shaken at 300 rpm for >1 hr. G2-10 antibody and beads were prepared in a BSA diluent containing 150 mM phosphate, pH 7.8, 150 mM NaCl, 3% (w/v) BSA (protease free fraction V) and 0.05% NaN3. The volume was brought to 250 μL with HBSP and read on an Igen 96-well electrochemiluminescence plate reader (M8 Analyzer) at 620 nm. Subtraction of background activity in solutions containing only substrate was performed to determine the final activity. […] One unit was defined as one nM product generated per min.
(§2) All measurements were performed in at least duplicates and the inhibition constants (Ki) were determined by the equation below wherein Vo and Vi are activity in the absence and presence of inhibitors, respectively. Vo/Vi=1+[I]/K1
(§3) Several commercial inhibitors were tested with the electrochemiluminescence assay.
(§4) Hydrolysis of substrate was measured in HBSP (pH 7.4) for TAFIa, CPB, CPM, and CPM. Activities of CPE and CPZ were measures in acetate buffer (pH 5.5) and Tris buffer (pH 7.4), respectively.

[2] = target: T2, CPM (Homo sapiens, UniProt P14384)
T2 sequence (P14384 18-423 limits assumed): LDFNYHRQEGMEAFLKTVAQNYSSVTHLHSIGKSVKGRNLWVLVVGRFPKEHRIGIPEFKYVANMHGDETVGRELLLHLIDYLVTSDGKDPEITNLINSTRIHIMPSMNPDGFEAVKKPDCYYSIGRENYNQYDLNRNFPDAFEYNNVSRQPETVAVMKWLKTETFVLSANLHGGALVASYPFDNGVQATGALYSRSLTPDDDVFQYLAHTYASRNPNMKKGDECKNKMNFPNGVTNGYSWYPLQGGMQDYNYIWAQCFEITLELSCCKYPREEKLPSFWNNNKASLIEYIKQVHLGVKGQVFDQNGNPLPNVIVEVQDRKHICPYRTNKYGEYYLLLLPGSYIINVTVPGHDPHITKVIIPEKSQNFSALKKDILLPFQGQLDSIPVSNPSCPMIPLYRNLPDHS
Experimental: as §1, §2, §3, §4

[3] = target: T3, CPZ (Homo sapiens, UniProt Q66K79)
T3 sequence (Q66K79 19-652): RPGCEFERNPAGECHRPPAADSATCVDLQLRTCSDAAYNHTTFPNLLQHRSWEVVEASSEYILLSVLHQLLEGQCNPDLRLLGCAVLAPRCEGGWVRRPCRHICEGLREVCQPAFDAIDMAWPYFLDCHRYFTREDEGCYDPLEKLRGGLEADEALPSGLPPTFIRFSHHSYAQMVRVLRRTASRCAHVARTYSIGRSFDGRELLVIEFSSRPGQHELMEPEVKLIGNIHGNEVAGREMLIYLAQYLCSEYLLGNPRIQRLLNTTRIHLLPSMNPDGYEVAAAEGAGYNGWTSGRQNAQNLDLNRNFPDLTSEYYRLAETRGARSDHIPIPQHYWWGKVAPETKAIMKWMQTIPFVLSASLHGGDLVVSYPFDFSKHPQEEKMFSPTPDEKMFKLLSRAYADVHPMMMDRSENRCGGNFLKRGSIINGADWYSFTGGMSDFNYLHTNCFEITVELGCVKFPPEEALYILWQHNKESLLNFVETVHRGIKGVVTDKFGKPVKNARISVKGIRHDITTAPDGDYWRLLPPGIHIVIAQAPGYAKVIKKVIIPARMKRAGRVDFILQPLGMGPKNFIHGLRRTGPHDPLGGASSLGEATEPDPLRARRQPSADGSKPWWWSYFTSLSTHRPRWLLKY
Experimental: Inhibition studies of CPE were performed in an acetate buffer containing 125 mM sodium acetate, pH 5.5, 1.25 mM CoCl2 at 37° C. […] CPE (final concentration 0.15 nM) was pre-incubated with inhibitors for 30 min at room temperature. The electrochemiluminescence substrate (final concentration 50 nM) was added and incubated for 6 hr at 37° C., then quenched with one-third volume of 1 M Tris, pH 8.0. The activity of CPZ was determined in 100 mM Tris, pH 7.4 at 37° C.
CPZ (final concentration 2 nM) was pre-incubated with inhibitors for 30 min at room temperature before substrate was added (final concentration 50 nM). […] The concentration of product was determined as described above.
as §2
Activities of CPE and CPZ were measures in acetate buffer (pH 5.5) and Tris buffer (pH 7.4), respectively.

[4] = target: CPE (Homo sapiens, UniProt P16870); assay: biochemical
Experimental: (§5) Inhibition studies of CPE were performed in an acetate buffer containing 125 mM sodium acetate, pH 5.5, 1.25 mM CoCl2 at 37° C. […] CPE (final concentration 0.15 nM) was pre-incubated with inhibitors for 30 min at room temperature. The electrochemiluminescence substrate (final concentration 50 nM) was added and incubated for 6 hr at 37° C., then quenched with one-third volume of 1 M Tris, pH 8.0.
as §2

[5] = target: most carboxypeptidases; conditions: read-out: Ki for most carboxypeptidases; all except CPE
Experimental: (§6) A typical assay (75 μL) contained each studied carboxypeptidase and selected inhibitors (in 5 μL DMSO) in HBSP buffer in 96-well round bottom microtiter plates (Costar 3365 plates). Enzyme and compound were preincubated for 15–30 minutes at room temperature. […] The final substrate concentration was 15 to 50 nM. The amount of carboxypeptidase activity was titrated to result in 40,000–50,000 electrochemiluminescence counts (typically 0.02–0.1 nM, 0.01 nM, 5 nM, and 0.15–0.65 nM. for TAFIa, CPB, CPN and CPM, respectively). […] Ruthenium-labeled G2-10 (25 μL of 0.063 μg/mL) and streptavidin magnetic beads (25 μL of 0.2 mg/mL, Dynabeads M-280) were added to the quenched solution and shaken at 300 rpm for >1 hr. G2-10 antibody and beads were prepared in a BSA diluent containing 150 mM phosphate, pH 7.8, 150 mM NaCl, 3% (w/v) BSA (protease free fraction V) and 0.05% NaN3. The volume was brought to 250 μL with HBSP and read on an Igen 96-well electrochemiluminescence plate reader (M8 Analyzer) at 620 nm. […]
(§7) All measurements were performed in at least duplicates and the inhibition constants (Ki) were determined by the equation below wherein Vo and Vi are activity in the absence and presence of inhibitors, respectively. […]
(§8) Hydrolysis of substrate was measured in HBSP (pH 7.4) for TAFIa, CPB, CPM, and CPM. […]

[6] = tested on: CPE
Experimental: as §5, §2

[7] = target: T4, CPN (Homo sapiens, UniProt P15169)
T4 sequence (P15169 21-458): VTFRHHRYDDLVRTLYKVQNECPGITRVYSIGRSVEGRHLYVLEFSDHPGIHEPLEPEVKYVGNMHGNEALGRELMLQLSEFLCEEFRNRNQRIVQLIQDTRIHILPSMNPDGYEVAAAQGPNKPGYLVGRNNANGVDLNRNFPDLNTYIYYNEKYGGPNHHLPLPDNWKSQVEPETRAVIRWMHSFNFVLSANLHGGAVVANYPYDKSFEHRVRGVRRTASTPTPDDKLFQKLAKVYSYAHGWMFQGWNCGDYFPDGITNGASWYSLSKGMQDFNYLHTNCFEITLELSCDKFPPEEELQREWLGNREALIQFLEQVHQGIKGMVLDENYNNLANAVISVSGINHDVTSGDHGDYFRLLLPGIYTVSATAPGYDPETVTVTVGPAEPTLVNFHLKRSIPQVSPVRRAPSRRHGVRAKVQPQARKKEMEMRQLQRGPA
T4 sequence (P22792 22-545 partner): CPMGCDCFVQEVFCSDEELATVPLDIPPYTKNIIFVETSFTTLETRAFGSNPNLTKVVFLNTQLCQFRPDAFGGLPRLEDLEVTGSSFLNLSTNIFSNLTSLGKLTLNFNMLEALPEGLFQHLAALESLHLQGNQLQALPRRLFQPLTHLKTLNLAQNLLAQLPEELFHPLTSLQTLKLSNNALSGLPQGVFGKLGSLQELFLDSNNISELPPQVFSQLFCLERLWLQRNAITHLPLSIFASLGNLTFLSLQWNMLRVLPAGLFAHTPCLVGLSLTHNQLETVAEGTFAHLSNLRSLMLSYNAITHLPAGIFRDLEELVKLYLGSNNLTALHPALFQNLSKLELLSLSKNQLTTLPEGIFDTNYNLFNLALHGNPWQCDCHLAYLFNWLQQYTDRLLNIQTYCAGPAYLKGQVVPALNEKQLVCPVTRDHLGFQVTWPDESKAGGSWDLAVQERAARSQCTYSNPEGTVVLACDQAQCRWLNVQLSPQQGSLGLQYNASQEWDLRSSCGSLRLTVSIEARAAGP
Experimental: as §6, §7, §8

Chain of CPE (Homo sapiens, UniProt P16870) (P16870 43-450 limits assumed): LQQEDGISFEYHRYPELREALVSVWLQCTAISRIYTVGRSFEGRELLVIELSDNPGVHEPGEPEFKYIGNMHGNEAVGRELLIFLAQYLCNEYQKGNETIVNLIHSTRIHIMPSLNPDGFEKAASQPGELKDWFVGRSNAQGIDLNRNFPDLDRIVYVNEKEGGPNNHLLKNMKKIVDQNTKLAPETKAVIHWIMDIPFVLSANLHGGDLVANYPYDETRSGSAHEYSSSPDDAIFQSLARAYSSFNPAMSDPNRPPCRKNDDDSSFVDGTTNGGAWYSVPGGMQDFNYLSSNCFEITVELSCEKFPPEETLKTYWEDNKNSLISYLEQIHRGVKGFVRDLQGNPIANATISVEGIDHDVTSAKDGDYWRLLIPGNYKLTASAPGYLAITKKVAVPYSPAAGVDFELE

N=C(N)NCCSCC(CS)C(=O)O (racemic) [Plummer's Inhibitor, DL-2-mercaptomethyl-3-guinidinoethylthiopropanoic acid]
inhibitory potency toward CPB relative to TAFIa [1]: two to three orders of magnitude greater
Ki [2]: 0.003 µM

CSCC[C@H](NC(=O)[C@H](CC(C)C)NC(=O)CNC(=O)CCCCCNC(=O)CCCCCNC(=O)CCCC[C@@H]1SC[C@@H]2NC(=O)N[C@@H]21)C(=O)N[C@H](C(=O)NCC(=O)NCC(=O)N[C@H](C(=O)N[C@H](C(=O)N[C@@H](CCCNC(=N)N)C(=O)O)C(C)C)C(C)C)C(C)C ({Biotin-Ahx-Ahx}-GLMVGGVVR-OH)
Km ([2]; read-out: Km for CPM, 37° C.): > 50 µM

N=C(N)NCCSC(CC(=O)O)C(=O)O (centres unmarked) [GEMSA, 2-guanidinoethylmercaptosuccinic acid]
Ki [3]: 7 µM
fold less potent for CPZ than for CPE ([3]; CPZ versus CPE): 440 fold
Ki [4]: 0.016 µM
inhibitory potency toward CPB relative to TAFIa [1]: two to three orders of magnitude greater

NCCCCCC(=O)O [ε-aminocaproic acid]
IC50 [4]: 8 µM
Ki [4]: 8.2 µM
Ki [5]: ≥ 1000 µM
fold more potent on CPE than inhibition of CPB ([6]; CPE versus CPB): > 100 fold
potency on CPE relative to the other enzymes ([6]; CPE versus other carboxypeptidases): two orders of magnitude more potent

protamine
specificity for CPN activity ([7]; CPN versus the other carboxypeptidases): > 100 fold
Ki ([7]; read-out: Ki for CPN, room temperature, HBSP pH 7.4): 0.97 µM
